“Also recorded” adds a separate entry of the source.
How the values were obtained:
[1] = Bioavailability / plasma pharmacokinetics after inhalation (MDI) versus i.v. in tracheostomized dogs; assay type: in vivo; settings: dog
Description: All quantitative analyses for 5-LO inhibitor #1 formulations were performed by high pressure liquid chromatography (HPLC). The mobile phase composition was 30% v/v tetrahydrofuran in water with 0.128% w/v tetramethylammonium perchlorate and 0.075% v/v trifluoroacetic acid. A Regis Little Champ™ C-18, 4.6×50 mm column was used. The mobile phase flow rate was maintained at 1.0 milliliters/minute (mL/min). Detection wavelength was set at 282 nanometers (nm) and typical injection volumes were between 25 to 50 microliters (μL). Under these conditions, the standard curve for the parent drug was linear between the range of 3 to 75 micrograms/milliliter (μg/mL) (r^2 ≥0.990), with a run time of about 8 minutes.
Using a test preparation containing 25 mg/mL 5-LO inhibitor #1 and 2.5 mg/mL olive oil in HFC-134a propellant, pulmonary absorption and in vivo distribution (i.e. bioavailibility factors) were assessed in four tracheostomized dogs (Marshall Farms, N.Y.) weighing about 10 kilograms (kg) each. Four sprays, delivering 1.25 mg of active 5-LO inhibitor #1/spray, were delivered to the trachea of each dog, resulting in a total drug dose of about 0.5 mg/kg. Blood samples were collected at 0.25, 0.5, 1, 2, 3.5, 5, 7, 9, 12 and 24 hours after dosing and the plasma assayed for drug concentration using the HPLC method described in Example 1A above.

[2] = as above; settings: dog, in vivo
[3] = Visual dispersion quality (physical stability) of MDI formulations in HFA-134a after 24 hours; assay type: physicochemical; set-up: key: Poor: Phase separation; top phase clear, bottom phase containing solids; Fair: Partial phase separation; cloudiness in the top phase; Good: Grainy appearance; no phase separation; Clear solution
Description: MDI formulations for performance testing were prepared in the following manner: For each test formulation, about 5 mL (or 7.4 grams) of glass beads were placed into a suitable glass aerosol container (vial), along with 100 mg to 250 mg drug and a vegetable oil in the amounts needed to produce the desired final concentrations. All vegetable oils used in the following examples were purchased from Sigma® Chemical Company (St. Louis, Mo., 63178). The vials were crimped shut with valves having delivery values (volumes per spray) of 50 μL, and then charged with 10 mL of HFA-134a propellant. The filled vials were then shaken for 24 hours at about 50 cycles/minute to mill and disperse the drug. […] The formulations were then used in the in vitro or in vivo studys described below.
A determination of the effect of vegetable oils on the physical stability of several MDI formulations prepared with HFA-134a was conducted as follows: A vegetable oil was combined either with (1) leuprolide acetate (Table 2a) or (2) 5-LO inhibitor #1 (Table 2b) in the amounts indicated and placed in appropriate transparent aerosol containers (vials). […] The dispersion quality in each preparation was evaluated visually after 24 hours using the following criteria: […]

[4] = in vivo, inhaled or intranasal, 0.5 mg/kg
[5] = in vivo, inhaled or intranasal, 0.5 mg/kg, Plasma concentration (5-LO Inhibitor Levels)
[6] = inhaled or intranasal, 0.5 mg/kg, Plasma concentration (5-LO Inhibitor Levels)
[7] = iv, 0.5 mg/kg, Plasma concentration (5-LO Inhibitor Levels)

CC(C#Cc1ccc(Cc2ccc(F)cc2)s1)N(O)C(N)=O (stereo not drawn) [5-LO inhibitor #1, N-[3-[5-(4-fluorophenylmethyl)-2-thienyl]-1-methyl-2-propynyl]-N-hydroxyurea]
Cmax [1, 4]: 150 ± 30 ng/mL | Tmax [1, 4]: 10.4 ± 9.23 h | Plasma concentration (5-LO Inhibitor Levels) ([1]; in vivo, inhaled or intranasal, 0.5 mg/kg, 1 h): 30 ± 20 ng/mL | concentration at 0.5 h [1, 5]: 10 ± 10 ng/mL | concentration at 1 h [1, 5]: 30 ng/mL | concentration at 7 h [1, 5]: 120 ± 70 ng/mL | concentration at 9 h [1, 5]: 90 ± 50 ng/mL | concentration at 24 h [1, 5]: 50 ± 60 ng/mL | concentration at 12 h ([1]; in vivo, inhaled or intranasal, 0.5 mg/kg, drug levels maintained): ≥ 70 ng/mL | onset and absorption from the lungs (in words) ([1]; inhalation formulation): fast onset of drug absorption; also recorded: rapid onset and prolonged absorption of drug from the lungs | duration of drug absorption after dosing [2]: 6 to 8 h | AUC(0-t) at 24 h ([2]; inhaled or intranasal, 0.5 mg/kg): 1600 ± 400 ng·h/mL | bioavailability ([2]; inhaled or intranasal, 0.5 mg/kg, Bioavailability (absolute lung bioavailability versus i.v.)): ~64% | concentration at 2 h [2, 6]: 40 ± 30 ng/mL | concentration at 3.5 h [2, 6]: 90 ± 60 ng/mL | concentration at 5 h [2, 6]: 80 ± 60 ng/mL | concentration at 12 h [2, 6]: 70 ± 40 ng/mL | AUC(0-t) at 24 h ([2]; iv, 0.5 mg/kg): 5060 ± 1040 ng·h/mL | Plasma concentration (5-LO Inhibitor Levels) ([2]; iv, 0.5 mg/kg, 0 min): 0 ng/mL | Plasma concentration (5-LO Inhibitor Levels) ([2]; iv, 0.5 mg/kg, 0.25 h): 590 ± 50 ng/mL | Plasma concentration (5-LO Inhibitor Levels) ([2]; iv, 0.5 mg/kg, 12 h): 180 ± 60 ng/mL | concentration at 0.08 h [2, 7]: 630 ± 60 ng/mL | concentration at 0.25 h [2, 7]: ~600 ng/mL | concentration at 0.5 h [2, 7]: 600 ± 40 ng/mL | concentration at 1 h [2, 7]: 520 ± 40 ng/mL | concentration at 2 h [2, 7]: 480 ± 50 ng/mL | concentration at 4 h [2, 7]: 370 ± 60 ng/mL | concentration at 6 h [2, 7]: 300 ± 50 ng/mL | concentration at 8 h [2, 7]: 230 ± 50 ng/mL | concentration at 12 h [2, 7]: ~200 ng/mL | concentration at 24 h [2, 7]: 70 ± 20 ng/mL | Dispersion Quality (measured after 24 Hours) ([3]; Table 2b, 5-LO inhibitor #1 formulations in HFA-134a): Poor

CCNC(=O)[C@@H]1CCCN1C(=O)[C@H](CCCNC(=N)N)NC(=O)[C@H](CC(C)C)NC(=O)[C@@H](CC(C)C)NC(=O)[C@H](Cc1ccc(O)cc1)NC(=O)[C@H](CO)NC(=O)[C@H](Cc1c[nH]c2ccccc12)NC(=O)[C@H](Cc1c[nH]cn1)NC(=O)[C@@H]1CCC(=O)N1 [Leuprolide Acetate, leuprolide acetate, reference compound]
Dispersion Quality (measured after 24 Hours) ([3]; Table 2a, leuprolide acetate formulations (or excipients alone) in HFA-134a): Poor

Source: patent publication US5635161A, “Aerosol drug formulations containing vegetable oils” (priority 1995, dated 1997)
